We go through seven compounds from ChEMBL document CHEMBL1151130, “Oxygenated Furanosesterterpene Tetronic Acids from a Sponge of the Genus Ircinia” (J Nat Prod, 1988).

Activity calls are given as the source filed them. No cut-off for these calls is given here.

Data set [1] in a line: Cytotoxicity against […] cells at 2 ug/disk. In kind it is cell-based.
Data set [2] relates to Poliovirus 1. Put plainly: Antiviral activity against Poliovirus type 1 infected in […] cells at 20 ug/disk. In kind it is functional, organism-based.
Data set [3] relates to Human alphaherpesvirus 1. Put plainly: Antiviral activity against HSV1 infected in […] cells at 20 ug/disk. The format is functional, organism-based.
In data set [4] the test system is Poliovirus 1. In words: Antiviral activity against Poliovirus type 1 infected in […] cells at 2 ug/disk. In kind it is functional, organism-based.
Data set [5] has as its system Human alphaherpesvirus 1. In words: Antiviral activity against HSV1 infected in […] cells at 2 ug/disk. In kind it is functional, organism-based.

For the compound `CC1=C(O)/C(=C/[C@@H](C)CCC/C(C)=C/CC/C(C)=C/CCc2ccoc2)OC1=O`, the Activity result in data set [1] is “Toxic”.

Consider `CC1=C(O)/C(=C/[C@@H](C)CCC/C(C)=C/CCC(C)(O)CCCc2ccoc2)OC1=O` (stereo partly drawn), for which the result in data set [2] and in data set [3] was inactive.

Regarding `C=C(CC/C=C(\C)CCC(=O)c1ccoc1)CCC[C@H](C)/C=C1\OC(=O)C(C)=C1OC`, the outcome in data set [4] and in data set [5] was inactive.

With `COC1=C(C)C(=O)O/C1=C\[C@@H](C)CCC/C(C)=C/C/C=C(\C)CCC(=O)c1ccoc1`, the result in data set [4] and in data set [5] was inactive.

As for `COC1=C(C)C(=O)O/C1=C\[C@@H](C)CCC/C(C)=C/CC/C(C)=C/CCc1ccoc1`, the outcome in data set [2] and in data set [3] was inactive.

`COC1=C(C)C(=O)O/C1=C\[C@@H](C)CCC/C(C)=C/CCC(C)(O)CCCc1ccoc1` (stereo partly drawn): the result in data set [2] and in data set [3] was inactive.

With `COC1=C(C)C(=O)O/C1=C\[C@@H](C)CCC/C(C)=C/CC/C(C)=C/CC(=O)c1ccoc1`, the result in data set [4] and in data set [5] was inactive.
